{"source": "patent US20250064891A1", "about": "“HOST PROTEASES ESSENTIAL FOR PARAINFLUENZA SPREAD IN THE HUMAN LUNG: POTENTIAL TARGETS FOR ANTIVIRAL INTERVENTIONS” (The Trustees of Columbia University in the City of New York, priority 2022, published 2025)", "key": {"[1]": {"tested_on": "serine proteases, such as TMPRSS2", "assay": "Inhibition of serine proteases (statement without method)"}, "HPIV3 [2]": {"tested_on": "HPIV3", "assay": "HPIV3 spread in intranasally infected cotton rats, viral titer of nasal tissue by plaque assay", "conditions": "intranasal nafamostat 3 mg/kg body weight daily, sacrificed 3 days after infection (FIG. 5)", "method": "Viral titer (LogTCID50 per gram of nasal tissue) was determined by plaque assay. Values are means and SEM."}, "HPIV3 [3]": {"tested_on": "HPIV3", "assay": "HPIV3 titer (infectious viral particles) released by infected Calu-3 cells / HAE treated with protease inhibitor", "format": "cell-based, human parainfluenza virus 3 (HPIV3)", "conditions": "for production of infectious viral particles / viral spread (HPIV3 titer): Calu-3 cell culture media and HAE apical washes 3 days after infection (FIG. 3); for viral titer: virions released by infected Calu-3 cells into the media (FIG. 8A)", "description": "Values are means and SEM from one biological replicate."}, "HPIV3 F": {"tested_on": "HPIV3 F", "conditions": "for HPIV3 F cleavage: Calu-3 cells and HAE inoculated with HPIV-3 F E108 or F K108, treated after inoculation (FIG. 3); for HPIV3 F E108 (F0) cleavage: Western blot of Calu-3 cell media (FIG. 8B)", "method": "(A) Calu-3 cells and (B) HAE were inoculated with HPIV-3 F E108 (left) or HPIV-3 F K108 (right). After inoculation, cells were treated with the indicated concentrations of aprotinin or leupeptin. HPIV3 infected Calu-3 cell culture media and HAE apical wash resolved by reducing SDS-PAGE and immunoblotted with anti-HPIV3 F antibody. HPIV3 titer in cell culture media and HAE apical washes 3 days after infection. Values are means and SEM from 1-3 biological replicates.\nVirions released by the infected cells into the media were titered. B) Western blotting for HPIV3 F in Calu-3 cell media."}}, "note": "“Also recorded” adds a separate entry of the source."}
{"compound": "CN(C)C(=O)COC(=O)Cc1ccc(OC(=O)c2ccc(NC(=N)N)cc2)cc1", "note": "[camostat]", "values": [{"measurement": "inhibition of serine proteases, such as TMPRSS2", "setting": "[1]", "result": "effective inhibitors of serine proteases"}]}
{"compound": "N=C(N)c1ccc2cc(OC(=O)c3ccc(N=C(N)N)cc3)ccc2c1", "note": "[Nafamostat]", "values": [{"measurement": "HPIV3 spread in vivo (viral titer, LogTCID50 per gram of nasal tissue)", "setting": "HPIV3 [2]", "result": "reduced HPIV3 spread in nasal tissue of cotton rats; also recorded: blocks HPIV3 spread in vivo"}]}
{"compound": "CC(=O)N[C@@H](CC(C)C)C(=O)N[C@@H](CC(C)C)C(=O)N[C@H](C=O)CCCNC(=N)N", "note": "[leupeptin]", "values": [{"measurement": "production of infectious viral particles / viral spread (HPIV3 titer)", "setting": "HPIV3 [3]", "result": "inhibited viral spread; also recorded: reduces production of infectious viral particles"}, {"measurement": "viral titer", "setting": "HPIV3 [3]", "result": "reduced viral titer"}, {"measurement": "inhibition of serine proteases, such as TMPRSS2", "setting": "[1]", "result": "effective inhibitors of serine proteases"}, {"measurement": "HPIV3 F cleavage", "setting": "HPIV3 F", "result": "block HPIV3 F cleavage"}, {"measurement": "HPIV3 F E108 (F0) cleavage", "setting": "HPIV3 F", "result": "reduced HPIV3 F E108 cleavage"}]}
{"compound": "aprotinin", "values": [{"measurement": "production of infectious viral particles / viral spread (HPIV3 titer)", "setting": "HPIV3 [3]", "result": "inhibited viral spread; also recorded: reduces production of infectious viral particles"}, {"measurement": "viral titer", "setting": "HPIV3 [3]", "result": "reduced viral titer; also recorded: dose-dependent reduction in viral titer"}, {"measurement": "inhibition of serine proteases, such as TMPRSS2", "setting": "[1]", "result": "effective inhibitors of serine proteases"}, {"measurement": "HPIV3 F cleavage", "setting": "HPIV3 F", "result": "block HPIV3 F cleavage"}, {"measurement": "HPIV3 F E108 (F0) cleavage", "setting": "HPIV3 F", "result": "reduced HPIV3 F E108 cleavage; also recorded: significant reduction in F0 cleavage"}]}
